Laboratory results as given in US10238631B2, “Sesquiterpene derivatives and their use in inflammation or cancer treatment” (Academia Sinica, priority 2014, dated 2019).

system: LPS-induced nitric oxide (NO) production in RAW 264.7 cells; assay: Nitric oxide production in LPS-stimulated macrophages (Griess); assay type: cell-based, mouse; conditions: Mus musculus; LPS-stimulated RAW264.7, nitrite 24 h after LPS
Description: (§1) Marcophages (2×10^5 cells/well in 96-well plate) were treated with compounds for 1 h, then incubated further for 24 h with or without the presence of […] LPS in the cultural medium. Nitrite levels in cell culture medium were determined by the Griess reaction method. In parallel to the Griess assays, macrophage cell viabilities were determined using the MTT based colorimetric assay.
LPS from the outer membrane of Gram-negative bacteria can induce mRNA or protein levels of inducible nitric oxide synthase (iNOS), which catalyzes oxidative deamination of L-arginine to produce nitric oxide (NO). Once NO is predominantly produced, it interacts with superoxide anion and generates highly reactive oxidants resulting in cellular inflammation, DNA, protein and tissue damages, carcinogenesis, and antiapoptosis. We used in vitro LPS stimulated inflammation in RAW264.7 cell system to evaluate the effect of DET and its derivatives DETDs on NO production by determination of nitrite level (equivalent to NO level) in culture medium 24 h after LPS treatment.

Structure (SMILES)	IC50 [µM]
C=C1C(=O)OC2CC3=C[C@@H](C/C(C)=C/C(OC(=O)Cc4ccccc4)[C@H]12)OC3=O (stereo partly drawn) [DETD-43]	3.5
C=C1C(=O)OC2CC3=C[C@@H](C/C(C)=C/C(OC(=O)/C(C)=C/CC)[C@H]12)OC3=O (stereo partly drawn) [DETD-5]	2.4
C=C1C(=O)OC2CC3=C[C@@H](C/C(C)=C/C(OC(=O)C(Cl)Cl)[C@H]12)OC3=O (stereo partly drawn) [DETD-9]	> 10
C=C1C(=O)OC2CC3=C[C@@H](C/C(C)=C/C(OC(=O)c4cc5ccccc5s4)[C@H]12)OC3=O (stereo partly drawn) [DETD-41]	3.5

system: MCF-7 (ER+, Her2−) human breast cancer cells; assay: MTT cell viability assay, MCF-7 cells; assay type: cell-based; conditions: MCF7, 24 h, read-out: IC50 on cell viability, MCF-7 (ER+, Her2−)
Description: (§2) Normal or cancer cells (2×10^3 to 1×10^4 cells/well) were seeded in 96-well plate for overnight and treated with different compounds for 24 h to 72 h. Cells growth were determined by MTT-based colorimetric assays according to. Viability of the test cells treated with vehicle (0.5% DMSO) only was defined as 100% viable. Survival of cells after treatment with DETDs was calculated using the following formula: viable cell number (%)=OD570 (treated cell culture)/OD570 (vehicle control)×100.
(§3) Sixty DETDs were derived from parental compound […] and tested for anti-breast cancer cell activity.

Structure (SMILES)	IC50 [µM]
C=C1C(=O)OC2CC3=C[C@@H](C/C(C)=C/C(OC(=O)Cc4ccccc4)[C@H]12)OC3=O (stereo partly drawn) [DETD-43]	> 7.5
C=C1C(=O)OC2CC3=C[C@@H](C/C(C)=C/C(OC(=O)/C(C)=C/CC)[C@H]12)OC3=O (stereo partly drawn) [DETD-5]	2.4
C=C1C(=O)OC2CC3=C[C@@H](C/C(C)=C/C(OC(=O)C(Cl)Cl)[C@H]12)OC3=O (stereo partly drawn) [DETD-9]	> 7.5
C=C1C(=O)OC2CC3=C[C@@H](C/C(C)=C/C(OC(=O)c4cc5ccccc5s4)[C@H]12)OC3=O (stereo partly drawn) [DETD-41]	5.3

system: Melanocyte (Normal cells); assay: MTT cell viability assay, normal melanocytes; assay type: cell-based, human; conditions: Homo sapiens, Melanocyte, 24 h
Description: as §2
(§4) Several genes are involved in melanoma development and pathology; specifically, mutation in V-raf murine sarcoma viral oncogene homolog B1 (B-RAF) occurs approximately 50-60% and in neuroblastoma RAS viral oncogene homolog (N-RAS) occurs about 30% of malignant melanomas. A spectrum of wild-type or mutated melanoma cell lines including B16-F10, MeWo, A375, A2058, HTB-68, and melanocyte were used to study anti-melanoma cell proliferation activity of parental phytocompound DET and newly synthesized DETDs.

Structure (SMILES)	IC50 [µM]
C=C1C(=O)OC2CC3=C[C@@H](C/C(C)=C/C(OC(=O)Cc4ccccc4)[C@H]12)OC3=O (stereo partly drawn) [DETD-43]	> 10
C=C1C(=O)OC2CC3=C[C@@H](C/C(C)=C/C(OC(=O)/C(C)=C/CC)[C@H]12)OC3=O (stereo partly drawn) [DETD-5]	> 10
C=C1C(=O)OC2CC3=C[C@@H](C/C(C)=C/C(OC(=O)C(Cl)Cl)[C@H]12)OC3=O (stereo partly drawn) [DETD-9]	> 10
C=C1C(=O)OC2CC3=C[C@@H](C/C(C)=C/C(OC(=O)c4cc5ccccc5s4)[C@H]12)OC3=O (stereo partly drawn) [DETD-41]	> 10

system: M10 normal mammary epithelial cells; assay: MTT cell viability assay, M10 normal cells; assay type: cell-based, human; conditions: Homo sapiens, Epithelial cell, 24 h
Description: as §2, §3

Structure (SMILES)	IC50 [µM]
C=C1C(=O)OC2CC3=C[C@@H](C/C(C)=C/C(OC(=O)Cc4ccccc4)[C@H]12)OC3=O (stereo partly drawn) [DETD-43]	> 7.5
C=C1C(=O)OC2CC3=C[C@@H](C/C(C)=C/C(OC(=O)/C(C)=C/CC)[C@H]12)OC3=O (stereo partly drawn) [DETD-5]	> 7.5
C=C1C(=O)OC2CC3=C[C@@H](C/C(C)=C/C(OC(=O)C(Cl)Cl)[C@H]12)OC3=O (stereo partly drawn) [DETD-9]	> 7.5
C=C1C(=O)OC2CC3=C[C@@H](C/C(C)=C/C(OC(=O)c4cc5ccccc5s4)[C@H]12)OC3=O (stereo partly drawn) [DETD-41]	> 7.5

system: MeWo (No NRAS or BRAF mutation); assay: MTT cell viability assay, MeWo melanoma; assay type: cell-based, human; conditions: Homo sapiens, MeWo, 24 h
Description: as §2, §4

Structure (SMILES)	IC50 [µM]
C=C1C(=O)OC2CC3=C[C@@H](C/C(C)=C/C(OC(=O)Cc4ccccc4)[C@H]12)OC3=O (stereo partly drawn) [DETD-43]	> 10
C=C1C(=O)OC2CC3=C[C@@H](C/C(C)=C/C(OC(=O)/C(C)=C/CC)[C@H]12)OC3=O (stereo partly drawn) [DETD-5]	> 10
C=C1C(=O)OC2CC3=C[C@@H](C/C(C)=C/C(OC(=O)C(Cl)Cl)[C@H]12)OC3=O (stereo partly drawn) [DETD-9]	> 10
C=C1C(=O)OC2CC3=C[C@@H](C/C(C)=C/C(OC(=O)c4cc5ccccc5s4)[C@H]12)OC3=O (stereo partly drawn) [DETD-41]	> 10

system: B16-F10 (NRAS mutation); assay: MTT cell viability assay, B16-F10 melanoma; assay type: cell-based; conditions: Mus musculus, B16-F10, 24 h, 24 h, read-out: IC50 on cell viability, B16-F10 (NRAS mutation)
Description: as §2, §4

Structure (SMILES)	IC50 [µM]
C=C1C(=O)OC2CC3=C[C@@H](C/C(C)=C/C(OC(=O)/C(C)=C/CC)[C@H]12)OC3=O (stereo partly drawn) [DETD-5]	4.7
C=C1C(=O)OC2CC3=C[C@@H](C/C(C)=C/C(OC(=O)C(Cl)Cl)[C@H]12)OC3=O (stereo partly drawn) [DETD-9]	> 10
C=C1C(=O)OC2CC3=C[C@@H](C/C(C)=C/C(OC(=O)c4cc5ccccc5s4)[C@H]12)OC3=O (stereo partly drawn) [DETD-41]	5.5

same assay, conditions: Mus musculus, B16-F10, 24 h, read-out: IC50 on cell viability, B16-F10 (NRAS mutation)

Structure (SMILES)	IC50 [µM]
C=C1C(=O)OC2CC3=C[C@@H](C/C(C)=C/C(OC(=O)Cc4ccccc4)[C@H]12)OC3=O (stereo partly drawn) [DETD-43]	7.4

system: RAW264.7 (normal macrophage); assay: MTT cell viability assay, RAW264.7 macrophages; assay type: cell-based, mouse; conditions: Mus musculus, RAW264.7, 24 h
Description: as §2, §1

Structure (SMILES)	IC50 [µM]
C=C1C(=O)OC2CC3=C[C@@H](C/C(C)=C/C(OC(=O)Cc4ccccc4)[C@H]12)OC3=O (stereo partly drawn) [DETD-43]	> 10
C=C1C(=O)OC2CC3=C[C@@H](C/C(C)=C/C(OC(=O)/C(C)=C/CC)[C@H]12)OC3=O (stereo partly drawn) [DETD-5]	> 10
C=C1C(=O)OC2CC3=C[C@@H](C/C(C)=C/C(OC(=O)C(Cl)Cl)[C@H]12)OC3=O (stereo partly drawn) [DETD-9]	> 10
C=C1C(=O)OC2CC3=C[C@@H](C/C(C)=C/C(OC(=O)c4cc5ccccc5s4)[C@H]12)OC3=O (stereo partly drawn) [DETD-41]	> 10

system: A375 (BRAF mutation); assay: MTT cell viability assay, A375 melanoma; assay type: cell-based, human; conditions: Homo sapiens, A-375, 24 h, 24 h, MTT; read-out: IC50 on cell viability, A375 (BRAF mutation)
Description: as §2, §4
To investigate whether or not DETD-35 show synergism with PLX4032 against A375 melanoma cells, we performed anti-proliferation assay using MTT reagent to obtain IC50 of each compound. […] The synergistic effect was quantified by combination index (CI) analysis as stated above.

Structure (SMILES)	IC50 [µM]
C=C1C(=O)OC2CC3=C[C@@H](C/C(C)=C/C(OC(=O)/C(C)=C/CC)[C@H]12)OC3=O (stereo partly drawn) [DETD-5]	4.1
C=C1C(=O)OC2CC3=C[C@@H](C/C(C)=C/C(OC(=O)C(Cl)Cl)[C@H]12)OC3=O (stereo partly drawn) [DETD-9]	> 10
C=C1C(=O)OC2CC3=C[C@@H](C/C(C)=C/C(OC(=O)c4cc5ccccc5s4)[C@H]12)OC3=O (stereo partly drawn) [DETD-41]	> 10

same assay, conditions: Homo sapiens, A-375, 24 h, read-out: IC50 on cell viability, A375 (BRAF mutation)

Structure (SMILES)	IC50 [µM]
C=C1C(=O)OC2CC3=C[C@@H](C/C(C)=C/C(OC(=O)Cc4ccccc4)[C@H]12)OC3=O (stereo partly drawn) [DETD-43]	3.6

system: A2058 (BRAF mutation); assay: MTT cell viability assay, A2058 melanoma; assay type: cell-based, human; conditions: Homo sapiens, A2058, 24 h
Description: as §2, §4

Structure (SMILES)	IC50 [µM]
C=C1C(=O)OC2CC3=C[C@@H](C/C(C)=C/C(OC(=O)Cc4ccccc4)[C@H]12)OC3=O (stereo partly drawn) [DETD-43]	8.7
C=C1C(=O)OC2CC3=C[C@@H](C/C(C)=C/C(OC(=O)/C(C)=C/CC)[C@H]12)OC3=O (stereo partly drawn) [DETD-5]	5.8
C=C1C(=O)OC2CC3=C[C@@H](C/C(C)=C/C(OC(=O)C(Cl)Cl)[C@H]12)OC3=O (stereo partly drawn) [DETD-9]	> 10
C=C1C(=O)OC2CC3=C[C@@H](C/C(C)=C/C(OC(=O)c4cc5ccccc5s4)[C@H]12)OC3=O (stereo partly drawn) [DETD-41]	> 10

system: HTB-68 (NRAS mutation); assay: MTT cell viability assay, HTB-68 melanoma; assay type: cell-based, human; conditions: Homo sapiens, 24 h
Description: as §2, §4

Structure (SMILES)	IC50 [µM]
C=C1C(=O)OC2CC3=C[C@@H](C/C(C)=C/C(OC(=O)Cc4ccccc4)[C@H]12)OC3=O (stereo partly drawn) [DETD-43]	8.2
C=C1C(=O)OC2CC3=C[C@@H](C/C(C)=C/C(OC(=O)/C(C)=C/CC)[C@H]12)OC3=O (stereo partly drawn) [DETD-5]	7.8
C=C1C(=O)OC2CC3=C[C@@H](C/C(C)=C/C(OC(=O)C(Cl)Cl)[C@H]12)OC3=O (stereo partly drawn) [DETD-9]	> 10
C=C1C(=O)OC2CC3=C[C@@H](C/C(C)=C/C(OC(=O)c4cc5ccccc5s4)[C@H]12)OC3=O (stereo partly drawn) [DETD-41]	> 10

system: MDA-MB-231 (ER−, PR−, Her2−) human breast cancer cells; assay: MTT cell viability assay, MDA-MB-231 cells; assay type: cell-based; conditions: Homo sapiens, MDA-MB-231, 24 h, read-out: IC50 on cell viability, MDA-MB-231 (ER−, PR−, Her2−)
Description: as §2, §3

Structure (SMILES)	IC50 [µM]
C=C1C(=O)OC2CC3=C[C@@H](C/C(C)=C/C(OC(=O)Cc4ccccc4)[C@H]12)OC3=O (stereo partly drawn) [DETD-43]	6.9
C=C1C(=O)OC2CC3=C[C@@H](C/C(C)=C/C(OC(=O)/C(C)=C/CC)[C@H]12)OC3=O (stereo partly drawn) [DETD-5]	4.6
C=C1C(=O)OC2CC3=C[C@@H](C/C(C)=C/C(OC(=O)C(Cl)Cl)[C@H]12)OC3=O (stereo partly drawn) [DETD-9]	> 7.5
C=C1C(=O)OC2CC3=C[C@@H](C/C(C)=C/C(OC(=O)c4cc5ccccc5s4)[C@H]12)OC3=O (stereo partly drawn) [DETD-41]	5

system: TS/A (ER+, Her2−) murine mammary cancer cells; assay: MTT cell viability assay, TS/A cells; assay type: cell-based; conditions: Mus musculus, 24 h, read-out: IC50 on cell viability, TS/A (ER+, Her2−)
Description: as §2, §3

Structure (SMILES)	IC50 [nM]
C=C1C(=O)OC2CC3=C[C@@H](C/C(C)=C/C(OC(=O)Cc4ccccc4)[C@H]12)OC3=O (stereo partly drawn) [DETD-43]	2400
C=C1C(=O)OC2CC3=C[C@@H](C/C(C)=C/C(OC(=O)/C(C)=C/CC)[C@H]12)OC3=O (stereo partly drawn) [DETD-5]	1600
C=C1C(=O)OC2CC3=C[C@@H](C/C(C)=C/C(OC(=O)C(Cl)Cl)[C@H]12)OC3=O (stereo partly drawn) [DETD-9]	> 7500
C=C1C(=O)OC2CC3=C[C@@H](C/C(C)=C/C(OC(=O)c4cc5ccccc5s4)[C@H]12)OC3=O (stereo partly drawn) [DETD-41]	2800
